Data as given in patent US6861260B2, “Lipid membrane, method for measuring membrane permeability, and method for screening” (Chugai Seiyaku Kabushiki Kaisha, priority 2000, dated 2005).
Where two headings read alike, the source gives them in different places. Marks after values point to notes of the source that are not given here.

Assays:
[1] = Artificial lipid membrane permeability measurement (96-well filter plate, absorbance); assay type: in vitro ADME; design: Permeability coefficient (P), Example 2 / Permeability coefficient (P), Comparative Example 1: unit: cm/s; conditions: 0.5 mmol/L sample; for Papp at 0.5 mmol/L: PAMPA; for Permeability coefficient (P), Comparative Example 1: membrane of Comparative Example 1 (phosphatidylcholine, cholesterol and 1,9-decadiene 2:1:97)
[2] = literature data, References *1 to *4; cited from earlier work
[3] = membrane of Example 1 (phosphatidylcholine 2, cholesterol 1, stearic acid 0.2 %, w/w in 1,7-octadiene), pH 7.0, read-out: Permeability coefficient (P), Example 1
[4] = membrane of Example 2 (phosphatidylcholine 0.75, phosphatidylethanolamine 0.75, phosphatidylserine 0.25, phosphatidylinositol 0.25, cholesterol 1 %, w/w in 1,7-octadiene), pH 6.5
[5] = membrane of Example 2 (phosphatidylcholine 0.75, phosphatidylethanolamine 0.75, phosphatidylserine 0.25, phosphatidylinositol 0.25, cholesterol 1 %, w/w in 1,7-octadiene), pH 6.5, read-out: Permeability coefficient (P), Example 2
[6] = membrane of Example 3 (phosphatidylcholine and 1,6-heptadiene 2:98), buffer pH 6.5 to pH 7.0, read-out: Permeability coefficient (P), Example 3
[7] = membrane of Example 4 (phosphatidylcholine and 1,7-octadiene 2:98), buffer pH 6.5 to pH 7.0, read-out: Permeability coefficient (P), Example 4
[8] = membrane of Example 5 (phosphatidylcholine and 1,8-nonadiene 2:98), buffer pH 6.5 to pH 7.0, read-out: Permeability coefficient (P), Example 5
[9] = membrane of Comparative Example 2 (phosphatidylcholine and 1,9-decadiene 2:98), buffer pH 6.5 to pH 7.0, read-out: Permeability coefficient (P), Comparative Example 2

Compound | Papp at 0.5 mmol/L [1, 3] [×10⁻⁶ cm/s] | Permeability coefficient (P), Comparative Example 1 ([1]; pH 6.5) | Permeability coefficient (P), Example 2 [1, 4] | Papp at 0.5 mmol/L [1, 5] [×10⁻⁶ cm/s] | Papp at 0.5 mmol/L [1, 6] [×10⁻⁶ cm/s] | Papp at 0.5 mmol/L [1, 7] [×10⁻⁶ cm/s] | Papp at 0.5 mmol/L [1, 8] [×10⁻⁶ cm/s] | Papp at 0.5 mmol/L [1, 9] [×10⁻⁶ cm/s] | Human intestinal absorption (Fa, %) [2]
N=C(N)NC(=O)c1nc(Cl)c(N)nc1N [Amiloride] | 2.69 | 6.10E-08 | 6.73E-07 | – | – | – | – | – | 50*^3%
CO/N=C(\C(=O)N[C@@H]1C(=O)N2C(C(=O)O)=C(CSc3nc(=O)c(=O)[nH]n3C)CS[C@H]12)c1csc(N)n1 [Ceftriaxone] | 1.37 | 1.66E-08 | 2.25E-07 | – | – | – | – | – | 1*^4%
NS(=O)(=O)c1cc2c(cc1Cl)N=CNS2(=O)=O [Chlorothiazide] | 2.24 | 4.98E-08 | 2.71E-07 | – | – | – | – | – | –
Nc1ccn([C@@H]2O[C@H](CO)[C@@H](O)[C@@H]2O)c(=O)n1 [Cytarabine] | 0.889 | 3.87E-08 | – | 0.0387 | – | – | – | – | –
C[C@H]1c2cccc(O)c2C(=O)C2=C(O)[C@]3(O)C(=O)C(C(N)=O)=C(O)[C@@H](N(C)C)[C@@H]3[C@@H](O)[C@@H]21 [Doxycycline] | 7.07 | 1.52E-06 | 2.35E-05 | – | – | – | – | – | 95*^3%
N=C(N)N/N=C/c1c(Cl)cccc1Cl [Guanabenz] | 19.5 | 4.14E-06 | 1.04E-05 | – | – | – | – | – | 75*^1%
NS(=O)(=O)c1cc2c(cc1Cl)NCNS2(=O)=O [Hydrochlorothiazide] | 1.34 | 8.64E-07 | – | 1.55 | 5.86 | 1.52 | 1.82 | 0.751 | –
COCCc1ccc(OCC(O)CNC(C)C)cc1 (stereo not shown) [Metoprolol] | 9.42 | 7.49E-07 | 6.88E-06 | – | – | – | – | – | –
O=C1CC[C@@]2(O)[C@H]3Cc4ccc(O)c5c4[C@@]2(CCN3CC2CC2)[C@H]1O5 [Naltrexone] | 11.2 | 9.61E-06 | 4.50E-06 | – | – | – | – | – | –
CN(C)[C@@H]1C(O)=C(C(N)=O)C(=O)[C@@]2(O)C(O)=C3C(=O)c4c(O)cccc4[C@@](C)(O)[C@H]3[C@H](O)[C@@H]12 [Oxytetracycline] | 3.31 | 8.31E-07 | 5.87E-06 | – | – | – | – | – | 60*^3%
CC[C@H](C)C(=O)O[C@H]1C[C@H](O)C=C2C=C[C@H](C)[C@H](CC[C@@H](O)C[C@@H](O)CC(=O)O)[C@H]21 [Pravastatin] | 2.69 | 7.21E-08 | 6.12E-07 | – | – | – | – | – | 34*^1%
CNC(=C[N+](=O)[O-])NCCSCc1ccc(CN(C)C)o1 [Ranitidine] | 1.22 | 1.34E-07 | 2.19E-06 | – | – | – | – | – | –
CCN1CCCC1CNC(=O)c1cc(S(N)(=O)=O)ccc1OC (stereo not shown) [Sulpiride] | 1.34 | 8.33E-08 | 2.23E-06 | – | – | – | – | – | –
CC(C)(C)NC[C@H](O)COc1nsnc1N1CCOCC1 [Timolol] | 9.13 | 1.05E-06 | 1.19E-05 | – | – | – | – | – | 90*^1%

The next lines start with results.

Papp at 0.5 mmol/L [1, 3] [×10⁻⁶ cm/s] | Permeability coefficient (P), Comparative Example 1 ([1]; pH 6.5) | Permeability coefficient (P), Example 2 [1, 4] | Papp at 0.5 mmol/L [1, 5] [×10⁻⁶ cm/s] | Papp at 0.5 mmol/L [1, 6] [×10⁻⁶ cm/s] | Papp at 0.5 mmol/L [1, 7] [×10⁻⁶ cm/s] | Papp at 0.5 mmol/L [1, 8] [×10⁻⁶ cm/s] | Papp at 0.5 mmol/L [1, 9] [×10⁻⁶ cm/s] | Compound | Human intestinal absorption (Fa, %) [2]
4.45 | 1.91E-07 | 3.67E-06 | – | – | – | – | – | CCCC(=O)Nc1ccc(OCC(O)CNC(C)C)c(C(C)=O)c1 (stereo not shown) [Acebutolol] | 90*^1%
8.17 | 4.98E-08 | 1.79E-06 | – | – | – | – | – | CC(=O)Nc1ccc(O)cc1 [Acetaminophen] | 80*^1%
0.16 | 2.76E-08 | – | 0.0443 | – | – | – | – | CO/N=C(\C(=O)N[C@@H]1C(=O)N2C(C(=O)O)=C(COC(N)=O)CS[C@H]12)c1ccco1 [Cefuroxime] | 5*^1%
0.802 | 1.09E-06 | – | 1.37 | – | – | – | – | CCOC(=O)[C@H](CCc1ccccc1)N[C@@H](C)C(=O)N1CCC[C@H]1C(=O)O [Enalapril] | 65*^3%
– | – | – | – | 50.5 | 13.6 | 16.8 | 9.22 | CC(C(=O)O)c1cccc(C(=O)c2ccccc2)c1 (stereo not shown) [Ketoprofen] | –
3.28 | 5.26E-07 | – | – | – | – | – | – | CC(C)(C)NCC(O)COc1cccc2c1CC(O)C(O)C2 (stereo not shown) [Nadolol] | 35*^1%
11 | 2.71E-08 | 7.94E-06 | – | – | – | – | – | CC(C)NCC(O)COc1cccc2[nH]ccc12 (stereo not shown) [Pindolol] | 90*^1%
1.01 | 4.36E-07 | 1.53E-06 | – | – | – | – | – | CC(=O)Nc1ccc(OCC(O)CNC(C)C)cc1 (stereo not shown) [Practolol] | –
– | – | – | – | 43.8 | 21.5 | 24.6 | 12.5 | CC(C)NCC(O)COc1cccc2ccccc12 (stereo not shown) [Propranolol] | –
3.24 | 3.12E-07 | 1.07E-06 | – | – | – | – | – | O=C(O)c1cc(/N=N/c2ccc(S(=O)(=O)Nc3ccccn3)cc2)ccc1O [Sulfasalazine] | 65*^1%
